{
  "source": "patent US7268118B2",
  "about": "“Thymosin β4 compositions” (United States of America as represented by The Secretary of …, priority 1998, dated 2007)",
  "key": {"[1]": {"tested_on": "full thickness cutaneous rat wound", "assay": "Full thickness punch biopsy wound healing in rats", "assay_type": "in vivo", "conditions": "for decrease in wound width relative to saline treated controls: intraperitoneal 60 μg in 300 μl", "experimental": "Full thickness 8 mm punch biopsy wounds were made on the dorsal surface of rats as previously reported (Bhartiya et al., J. Cell. Physiol. 150:312, 1992; Sihhu et al., J. Cell. Physiol. 169:108, 1996) and Tβ4 was given topically at the time of wounding (5 μg in 50 μl) and again after 48 hours. Controls for the topical treatment received identical amounts of saline at the time of wounding and at 48 hours. Additional rats received intraperitoneal injections at the time of wounding (60 μg in 300 μl) and again every other day (e.g., days 0, 2, 4, and 6). Controls for these animals received identical amounts of saline intra-peritoneally on the same injection schedule. On days 4 and 7 post-wounding, measurements were made on the wound size. At days 8 and 9 post-wounding, tissue was collected and fixed in 10% buffered formalin. The samples were sectioned and stained with H&E and Masson's Trichrome (American Histolabs, Gaithersburg, Md.).\nHistological sections were used to measure the re-epithelialization and the contraction of the wound using an ocular micrometer. Epidermal migration was determined by measuring the lengths of the tongues of epithelium migrating form either side of the wound over the wound bed from the zone of proliferation at the margin of the uninjured and wounded skin. Epidermal thickness was also measured beginning at the junction of the uninjured and proliferating epidermis. The thickness was measured vertically from the basement membrane to the most superficial layer of the migrating epidermis at every 200 microns. The mean epidermal thickness of each migrating tongue of epidermis was then computed from each wound. Vessel counts were performed by first identifying vascular spaces by their endothelial lining. All such vessels in the wound bed were counted including those at the junction of the dermis and the subcutis, since angiogenesis into the wounds occurs to a great extent from these vessels. The numbers were averaged into vessel counts per 10 high powered fields (40×).\nThe effect of Tβ4 on wound healing was studied in a full thickness cutaneous rat wound model. […] This model allowed measurement of two parameters: the re-epithelialization (gap) and the contraction (width) of the wound."}, "[2]": {"tested_on": "primary keratinocytes", "assay": "Keratinocyte migration assay in Boyden chamber", "assay_type": "cell-based, mice", "experimental": "Primary keratinocytes were prepared from either Balb/c or CD-1 newborn mice as described previously (Dlugosz et al., 1995). Cells were plated in calcium- and magnesium-free Eagle's Minimal Essential Medium (EMEM) containing 8% fetal calf serum treated with 8% Chelex (Bio-Rad Laboratories, Hercules, Calif.), 20 units/ml penicillin-streptomycin, and the calcium concentration was adjusted to 0.25 mM. The following day, cultures were washed with calcium- and magnesium-free phosphate buffered saline, treated briefly with Trypsin (Life Technologies, Gaithersburg, Md.), washed with culture medium and resuspended in EMEM containing 0.05 mM calcium. Cells were used immediately in migration assays.\nKeratinocyte migration assays were carried out in Boyden chamber using 12 μm pore polyester membranes (Poretics, Livermore, Calif.) coated with a 0.1 mg/ml solution of collagen IV in dH2O (Trevigen, Gaithersburg, Md.). Filters were then dried at least 1 h. Cells were harvested using Versene or Trypsin (Life Technologies, Gaithersburg, Md.) and resuspended in Eagle's minimal essential medium with 0.05 mM Ca^2+. The bottom chamber was loaded with EMEM containing 0.01, 0.1, 10, 100, and 1000 ng/ml of synthetic Tβ4. […] The cells that migrated through the filter were quantitated by counting the center of each well at 10× using an Olympus CK2 microscope. […]"}, "[3]": {"tested_on": "Corneal Epithelial Cell", "assay": "Corneal epithelial cell migration assay in Boyden chamber", "assay_type": "cell-based", "experimental": "Corneal Epithelial Cell migration assays were carried out in Boyden chamber using 12 μm pore polyester membranes (Poretics, Livermore, Calif.) coated with a 0.1 mg/ml solution of collagen IV in dH2O (Trevigen, Gaithersburg, Md.). Filters were then dried at least 1 h. Cells were cultured and resuspended in Eagle's Minimal Essential Medium with 0.05 mM Ca^2+. The bottom chamber was loaded with EMEM containing 0.01, 0.1, 10, 100, and 1000 ng/ml of synthetic Tβ4. Conditioned medium from primary dermal fibroblasts and/or keratinocyte growth factor was added to several wells as a positive control. Cells were added to the upper chamber at a concentration of 50,000 cells per well. Chambers were incubated at 35 C/7% CO2 for 4-5 hours and the filters were then fixed and stained using Diff-Quik (Baxter Healthcare Corporation, McGraw Park, Ill.). The cells that migrated through the filter were quantitated by counting the center of each well at 10× using an Olympus CK2 microscope. Each condition was assayed in triplicate wells and each experiment was repeated four times with different preparations of cells. […] Migration was enhanced 2-3 fold over migration in the presence of media alone (FIG. 7) with the highest level of migration seen at 100 ng/ml of Tβ4."}, "[4]": {"tested_on": "de-epithelialized Rat corneas", "assay": "In vivo corneal re-epithelialization", "experimental": "To determine the effect of Tβ4 on corneal re-epithelialization in vivo, Rat corneas were de-epithelialized and treated with Tβ4. Filters were soaked in heptanol, applied to the eye for 30 seconds, and then the epithelium was scraped. Various concentration of Tβ4 in saline was applied to the eye and at 24 hours the rats were sacrificed. The eyes were fixed, sectioned and the degree of corneal epithelial migration (as measured in pixels) was determined using a microscope with an internal caliper by a masked observer."}, "[5]": {"tested_on": "wounds of steroid treated rats", "assay": "Impaired healing model (hydrocortisone treated rats)", "assay_type": "in vivo, rat", "experimental": "Steroid treatment reduces the rate of wound repair in mammals. Rats treated with steroids such as hydrocortisone serve as a model of impaired wound healing due to the delay observed in wound closure. Animals were injected intramuscularly everyday with hydrocortisone."}, "[6]": {"conditions": "intraperitoneal injection, day 4"}, "[7]": {"conditions": "intraperitoneal injection, day 7"}},
  "data": [
    {"substance": "thymosin β4 [Tβ4]", "values": [
      {"measurement": "increase in the number of vessels in treated wounds", "setting": "[1]; 7 day wounds", "result": "about 2 fold"},
      {"measurement": "decrease in wound width as compared to the saline controls", "setting": "[1]; FIG. 2, topical 5 μg in 50 μl, as early as 4 days after wounding, continued until day 7", "result": 15, "unit": "%"},
      {"measurement": "Epidermal Migration", "setting": "[1]; I.P.", "result": "3168.3 ± 38.4", "unit": "μm"},
      {"measurement": "Epidermal Thickness", "setting": "[1]; I.P.", "result": "135.0 ± 11.7", "unit": "μm"},
      {"measurement": "Vessels/10 HPF", "setting": "[1]; I.P.", "result": "2415.0 ± 24.3"},
      {"measurement": "Epidermal Migration", "setting": "[1]; Topical", "result": "3668.7 ± 56.6", "unit": "μm"},
      {"measurement": "Epidermal Thickness", "setting": "[1]; Topical", "result": "142.3 ± 19.8", "unit": "μm"},
      {"measurement": "Vessels/10 HPF", "setting": "[1]; Topical", "result": "2186.0 ± 11.8"},
      {"measurement": "re-epithelialization of the wound (histology)", "setting": "[1]; day 7, intraperitoneal 60 μg/300 μl on alternate days", "result": "Increased re-epithelialization"},
      {"measurement": "neovascularization of the dermis (histology)", "setting": "[1]; day 7, intraperitoneal and topical", "result": "significant new capillaries"},
      {"measurement": "re-epithelialization of the wound (histology)", "setting": "[1]; day 7, topical 5 μg/50 μl", "result": "complete reepithelialization"},
      {"measurement": "thickness of the migrating epidermis versus control", "setting": "[1]; either Tβ4 treatment (I.P., topical)", "result": "no difference"},
      {"measurement": "effect on wound healing at lower dose", "setting": "[1]; intraperitoneal 6 μg in 300 μl", "result": "no effect"},
      {"measurement": "effect on wound healing at lower dose", "setting": "[1]; intraperitoneal 30 μg in 300 μl", "result": "reduced"},
      {"measurement": "decrease in wound width relative to saline treated controls", "setting": "[1]; day 4", "result": 18, "unit": "%"},
      {"measurement": "decrease in wound width relative to saline treated controls", "setting": "[1]; day 7", "result": 11, "unit": "%"},
      {"measurement": "decrease in gap size relative to saline treated controls", "setting": "[1]; intraperitoneal, 4th day post wounding", "result": 42, "unit": "%"},
      {"measurement": "migration of epidermal tongues as compared to controls", "setting": "[1]; intraperitoneally treated wounds", "result": "statistically significant increase"},
      {"measurement": "number of macrophages in the wounds", "setting": "[1]; rat, in vivo", "result": "No increases"},
      {"measurement": "effect on wound healing at lower dose", "setting": "[1]; topical 0.5 μg in 50 μl", "result": "no effect"},
      {"measurement": "effect on wound healing at lower dose", "setting": "[1]; topical 2.5 μg in 50 μl", "result": "reduced"},
      {"measurement": "wound healing as compared to untreated wounds", "setting": "[1]; topical or intraperitoneal", "result": "significantly accelerated wound healing"},
      {"measurement": "increase in migration of epidermal tongues over the wound bed", "setting": "[1]; topical treatment", "result": 1.5, "unit": "fold"},
      {"measurement": "decrease in gap length as compared to saline controls", "setting": "[1]; topical, 4 days after wounding", "result": 18, "unit": "%"},
      {"measurement": "decrease in width, treated versus controls", "setting": "[1]; topical, time not stated (FIG. 2)", "result": "about 15%"},
      {"measurement": "decrease in gap, treated versus controls", "setting": "[1]; topical, time not stated (FIG. 3)", "result": "about 15%"},
      {"measurement": "decrease in gap size", "setting": "[1]; wounds treated for 7 days, route not stated", "result": 62, "unit": "%"},
      {"measurement": "migration at the maximal responding dose versus positive control", "setting": "[2]", "result": "exceeded the positive control"},
      {"measurement": "keratinocyte migration over media alone", "setting": "[2]; 4-5 hours, filters coated with collagen IV", "result": "2-3 fold"},
      {"measurement": "corneal epithelial cell migration over media alone", "setting": "[3]; 4-5 hours of exposure", "result": "2-3 fold"},
      {"measurement": "concentration with the highest level of migration", "setting": "[3]; tested 0.01-1000 ng/ml", "result": 100, "unit": "ng/mL"},
      {"measurement": "re-epithelialization of the cornea over untreated control", "setting": "[4]; about 1 to 25 μg of Tβ4 in saline applied to the eye, 24 hours", "result": 2, "unit": "fold"},
      {"measurement": "inflammation of treated eyes compared to non-treated corneas", "setting": "[4]; rat, in vivo", "result": "reduced inflammation"},
      {"measurement": "decrease in gap size", "setting": "[5]; [6]", "result": 28, "unit": "%"},
      {"measurement": "decrease in wound width", "setting": "[5]; [6]", "result": 14, "unit": "%"},
      {"measurement": "decrease in gap size", "setting": "[5]; [7]", "result": 26, "unit": "%"},
      {"measurement": "decrease in wound width", "setting": "[5]; [7]", "result": 10, "unit": "%"},
      {"measurement": "level of healing in steroid treated rats", "setting": "[5]; topical or intraperitoneal", "result": "significant increase in the level of healing"},
      {"measurement": "gap or width closure compared to saline treatment", "setting": "[5]; topical, day 4, N=3", "result": "≤ 7", "unit": "%"},
      {"measurement": "decrease in gap compared to saline treatment", "setting": "[5]; topical, day 7", "result": 39, "unit": "%"},
      {"measurement": "decrease in wound width", "setting": "[5]; topical, day 7", "result": 23, "unit": "%"}
    ]}
  ]
}
